{
  "source": "paper PMC12615518",
  "about": "“Discovery of CRBN-recruiting PROTAC degraders of the METTL3-METTL14 complex” (Medicinal Chemistry Research, 2025)",
  "type_in_all_cases": "cell-based",
  "key": {"METTL14": {"target": "T1, METTL14 (Homo sapiens, UniProt Q9HCE5)", "T1 construct": "Following treatment, total cellular proteins were extracted using RIPA buffer; endogenous in cells; host or cells: MV4-11 (MV4.11) human AML cells, ATCC", "T1 sequence (Q9HCE5 whole entry)": "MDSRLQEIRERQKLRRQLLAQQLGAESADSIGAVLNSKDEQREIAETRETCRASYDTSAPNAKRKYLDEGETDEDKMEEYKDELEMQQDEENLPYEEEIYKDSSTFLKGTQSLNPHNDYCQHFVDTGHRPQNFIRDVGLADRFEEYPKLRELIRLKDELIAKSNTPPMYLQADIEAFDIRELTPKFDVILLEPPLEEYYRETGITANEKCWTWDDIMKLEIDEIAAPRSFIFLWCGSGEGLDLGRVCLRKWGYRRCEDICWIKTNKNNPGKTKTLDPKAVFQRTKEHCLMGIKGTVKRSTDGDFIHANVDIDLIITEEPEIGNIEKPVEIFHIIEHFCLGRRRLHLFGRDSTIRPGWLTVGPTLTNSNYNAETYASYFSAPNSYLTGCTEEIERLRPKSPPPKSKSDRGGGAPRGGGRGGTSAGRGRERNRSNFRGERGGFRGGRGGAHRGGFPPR", "T1 sequence (Q86U44 2-580 partner)": "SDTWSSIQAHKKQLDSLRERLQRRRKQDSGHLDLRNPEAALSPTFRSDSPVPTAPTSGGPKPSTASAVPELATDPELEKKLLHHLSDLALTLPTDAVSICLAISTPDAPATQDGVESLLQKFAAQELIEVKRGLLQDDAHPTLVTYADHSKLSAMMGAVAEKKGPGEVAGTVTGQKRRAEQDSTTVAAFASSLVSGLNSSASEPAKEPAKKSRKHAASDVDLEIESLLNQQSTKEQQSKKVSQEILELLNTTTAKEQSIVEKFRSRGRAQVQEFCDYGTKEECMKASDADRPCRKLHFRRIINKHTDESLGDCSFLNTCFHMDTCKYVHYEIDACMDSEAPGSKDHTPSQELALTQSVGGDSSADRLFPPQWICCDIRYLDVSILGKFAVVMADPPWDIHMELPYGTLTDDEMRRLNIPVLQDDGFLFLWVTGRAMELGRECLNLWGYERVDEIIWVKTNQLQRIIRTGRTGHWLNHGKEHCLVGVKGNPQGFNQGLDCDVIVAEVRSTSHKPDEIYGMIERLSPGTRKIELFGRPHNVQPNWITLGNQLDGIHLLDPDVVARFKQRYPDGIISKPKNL", "test": "Immunoblotting (Western blot) degradation of METTL14 in MV4-11 cells", "experimental": "All cell lines were maintained under standard conditions in a humidified atmosphere at 37 °C with 5% CO₂.\nWestern Blot Analysis: Following treatment, total cellular proteins were extracted using RIPA buffer (Auragene, Changsha, China). […] After washing, membranes were incubated with horseradish peroxidase (HRP)-conjugated secondary antibodies (anti-rabbit or anti-mouse IgG; 1:5000) for 2 hours at room temperature. Protein bands were visualized using an enhanced chemiluminescence (ECL) detection kit (Amersham Pharmacia), following the manufacturer's protocol. Band intensities were quantified using ImageJ software and normalized to ACTIN as a loading control. Data was analyzed using GraphPad Prism 9."}, "METTL3": {"target": "METTL3 (Homo sapiens, UniProt Q86U44)", "sequence (Q86U44 2-580 limits assumed)": "as the sequence (Q86U44 2-580 partner) above", "sequence (Q9HCE5 whole entry partner)": "as the sequence (Q9HCE5 whole entry) above", "test": "Mechanism study: METTL3 Western blot in HEK293T cells after pretreatment with proteasome inhibitors or CRBN ligand", "design": "endogenous in cells", "settings": "then ZW30441 2.5 µM for 24 h", "experimental": "We next explored the mechanisms of ZW30441-induced METTL3-METTL14 degradation. HEK293T cells were pretreated with the proteasome inhibitors bortezomib (0.1 µM) or MG132 (1 µM) for 2 h before ZW30441 (2.5 µM) administration (Fig. 4A).\nFig. 4 ZW30441 induced METTL3-METTL14 complex degradation through the ubiquitin-proteasome system and affected the survival of human AML cell lines. A Western blot analysis of METTL3 expression in HEK293T cells after pretreatment with the CRBN ligand pomalidomide (10 µM) or the proteasome inhibitors bortezamib (0.1 µM) or MG132 (1 µM) for 2 h, followed by treatment with ZW30441 (2.5 µM) for 24 h (left). Western blot analysis of METTL3 and METTL14 levels in MV4-11 cells after treatment with UHZ2, ZW30441, and the negative control ZW30441NC at the indicated concentration for 24 h (right). B Cell viability study of ZW30441 in MOLM13 and MV4-11 cell lines (left). […]\nWestern Blot Analysis: Following treatment, total cellular proteins were extracted using RIPA buffer (Auragene, Changsha, China). […] Band intensities were quantified using ImageJ software and normalized to ACTIN as a loading control. Data was analyzed using GraphPad Prism 9. Degradation efficiency was evaluated by calculating DC₅₀, the drug concentration required to reduce target protein levels by 50%, and Dₘₐₓ, the maximum level of degradation observed across all tested concentrations."}, "METTL3-METTL14 complex": {"target": "T2, METTL3-METTL14 complex (Homo sapiens, UniProt Q86U44)", "T2 construct": "endogenous in cells; host or cells: MV4-11 human AML cells, ATCC", "T2 sequence (Q86U44 2-580 limits assumed)": "as the sequence (Q86U44 2-580 partner) above", "T2 sequence (Q9HCE5 whole entry partner)": "as the sequence (Q9HCE5 whole entry) above", "test": "Washout experiment in MV4-11 cells, Western blot", "settings": "1 µM for 20 h, then drug withdrawal 0 to 24 h", "experimental": "To further characterize this compound, MV4-11 AML cells were treated with ZW30441 across a range of concentrations for 24 h.\nFig. 3 ZW30441 induced degradation of METTL3 and METTL14 in a dose- and time-dependent manner. […] METTL3 and METTL14 protein levels were normalized against ACTIN and plotted for DC50 and Dmax determination (right). B The levels of METTL3 and METTL14 protein in MV4-11 cells were analyzed by Western blots after the treatment of 1 µM of ZW30441 for various durations. C METTL3 and METTL14 protein levels were analyzed by Western blots in MV4-11 cells after treatment with 1 µM of ZW30441 for 20 h followed by drug withdrawal and cultured without ZW30441 for 0 to 24 h, as indicated TEXT PRINTED IN THE PICTURE: (A) ZW30441: METTL3 levels: DC50=0.44 uM; METTL3 levels: Dmax= 68.7%; METTL14 levels: DC50=0.13 uM; METTL14 levels: Dmax= 74.1% DOUBTS OF THE COPYIST ABOUT THIS PICTURE: ZW30441, panel A, axis title of the right plot: last letter unclear, 'METTL14 levels' or 'METTL14 levela'\nWestern Blot Analysis: Following treatment, total cellular proteins were extracted using RIPA buffer (Auragene, Changsha, China). Equal amounts of protein were separated by 12% SDS-PAGE and transferred onto PVDF membranes (Thermo Fisher, USA, LC2002). […] Band intensities were quantified using ImageJ software and normalized to ACTIN as a loading control. Data was analyzed using GraphPad Prism 9. […]"}},
  "note": "Entries after “also recorded” stand apart in the source; their conditions may differ.",
  "data": [
    {"compound": "CC1(C)CCN(Cc2cc(F)c(N3CC(=O)NC4(CCN(c5cc(NCCCCCCCCCC(=O)N6CCN(c7ccc8c(c7)CN(C7CCC(=O)NC7=O)C8=O)CC6)ncn5)CC4)C3)cc2F)CC1", "note": "(centres unmarked) [Compound 4j, 3-(5-(4-(10-((6-(4-(4-((4,4-dimethylpiperidin-1-yl)methyl)-2,5-difluorophenyl)-2-oxo-1,4,9-triazaspiro[5.5]undecan-9-yl)pyrimidin-4-yl)amino)decanoyl)piperazin-1-yl)-1-oxoisoindolin-2-yl)piperidine-2,6-dione]", "values": [
      {"measurement": "Dmax", "setting": "METTL14; MV4-11, MV4-11 cells, 24 h", "result": 65, "unit": "%"},
      {"measurement": "% reduction in MV4-11 cells, 0.3 µM, METTL14", "setting": "METTL14; MV4-11 cells, 0.3 µM, 24 h, immunoblotting, nd = no degradation", "result": 56, "unit": "%"},
      {"measurement": "% reduction in MV4-11 cells, 1.0 µM, METTL14", "setting": "METTL14; MV4-11 cells, 1.0 µM, 24 h, immunoblotting, nd = no degradation", "result": 77, "unit": "%"},
      {"measurement": "DC50", "setting": "METTL14; MV4-11 cells, 24 h, Western blot normalized against ACTIN", "result": 130, "unit": "nM"},
      {"measurement": "time of maximum degradation of METTL14", "setting": "METTL14; MV4-11 cells, time course at 1 µM", "result": 20, "unit": "h"},
      {"measurement": "METTL3 degradation after pretreatment with proteasome inhibitors", "setting": "METTL3; bortezomib (0.1 µM) or MG132 (1 µM) for 2 h", "result": "effectively blocked; also recorded: abrogated"},
      {"measurement": "METTL3 degradation after pretreatment with CRBN ligand pomalidomide", "setting": "METTL3; pomalidomide 10 µM for 2 h", "result": "significantly reduced; also recorded: abrogated"},
      {"measurement": "duration of degradation after removal of compound (washout)", "setting": "METTL3-METTL14 complex", "result": "around 24 h"}
    ]}
  ]
}
